Read-outs that look alike come from different tables or passages of the source. Marks after values point to notes of the source that are not given here.
What was measured:
[1] = Acute toxicity in rats, Up-and-Down Procedure; details: both sexes, Sprague-Dawley, in vivo, rat, hydrogen fumarate salts, read-out: Acute toxicity (estimated LD50)
Description: Acute toxicological studies were performed in rats (Sprague-Dawley; M and F; 200-250 grams). The animal-sparing Up-and-Down Procedure, recommended by FDA and OECD, was used. Both oral and intravenous toxicity tests were performed.
Both compounds were administered as hydrogen fumarate salts.

[2] = Solubility in non-aqueous topical formulation solvents; format: physicochemical
Description: The hydrophobic ointment was prepared by dissolving norketotifen in propylene glycol. […] Next, glyceryl stearate, cetyl alcohol, and white petrolatum were added to a suitable container and heated to 65-70° C. This heating step melts the surfactants and the petrolatum. Next, norketotifen solution was slowly added and the composition mixed until the solvent was dispersed. Finally, the composition was cooled with mixing to allow the ointment to thicken. If needed, acidity can be adjusted by adding an acid solution or a base solution to obtain the preferred acidity. If needed, viscosity can be adjusted with a viscosity-modifying agent to obtain the preferred viscosity.

[3] = tested on: croton oil inflammatory response; assay: Modified croton oil ear inflammation in mice, topical cream; format: in vivo; details: cream containing 1.0 percent (w/w)
Description: In order to investigate the effects of topical administration of the test compounds in dermal inflammation, a modified croton oil model was used. […] The cream was then removed and a solution of 1% croton oil in 20 μl acetone was applied to both ears. […] Cream was wiped from the ears and ears were removed and weighed. […] All results represent mean ear weights (±S.E.M.) from 8 ears.

mice = details: for Sedated animals: mice, 60 min before physostigmine
Description: Mice administered a sedating drug prior to the physostigmine injection are protected from the stress and survive. In the present study, test compounds were given orally 60 minutes prior to physostigmine injection. The number of surviving (sedated) mice was counted 30 minutes after injection of the physostigmine dose.

[4] = tested on: histamine-induced pruritus; assay: Histamine-induced pruritus in mice, topical cream; format: in vivo; details: single topical application of 1.0 percent cream
Description: Antipruritic effects were tested in vivo in CD-1 female mice aged 10-12 weeks, according to methods known in the art. The hair was clipped over the rostral part of the back at the interscapular level of the mice one day before dosing. Before testing, the mice were placed in individual clear plastic cages for at least one hour for acclimation. […] Lanolin was weighed and liquified by submerging the vessel containing lanolin in hot water. While the lanolin was liquid, it was rapidly nixed (by vortexing) with the 2.5% norketotifen solution in ethanol, resulting in a 1.0 percent solution. […] A cream containing 60% lanolin/40% ethanol served as control.

Helicobacter pylori = assay: Antimicrobial test; format: cell-based
[5] = Formation of norketotifen by hepatic demethylation of ketotifen; details: human patients, after an oral dose of one milligram ketotifen; calculated
[6] = tested on: human leukocytes (buffy coat); assay: Inhibition of A23187-stimulated histamine release from human leukocytes; format: cell-based
Description: In these studies, histamine was the marker compound for inflammatory mediators that are released from mast cells and other pro-inflammatory cells in patients with atopic inflammatory diseases. The inhibition of stimulated histamine release from human leukocytes (buffy coat) by test articles was studied. Leukocytes were obtained from healthy volunteers and histamine release was induced by incubation (20 min/37° C.) with the calcium ionophore A23187 (5 μM) in the presence or absence of a test article. Histamine was analyzed by enzyme-immune assays, using commercially available kits and a microplate reader (MRX, Dynatech). The test articles were evaluated, in duplicate, at five concentrations.

[7] = tested on: histamine-induced pruritus; assay: Histamine-induced pruritus in mice, oral administration; format: in vivo
Description: Antipruritic effects were tested in vivo in CD-1 female mice aged 10-12 weeks. The hair was clipped over the rostral part of the back at the interscapular level of the mice one day before dosing. Before testing, the mice were placed in individual clear plastic cages for at least one hour for acclimation. After fasting for 1.5 hours, the animals were dosed orally with the test article, dissolved in a vehicle consisting of 1% methylcellulose/water, 10 mL/kg body-weight. Sixty minutes after oral dosing, an intradermal injection of histamine (300 nmol in 20 μl phosphate buffered saline (PBS), pH 7.4) was administered into the clipped area. Immediately after the histamine injection, the bouts of scratches were counted for 40 minutes. Scratching induced by the histamine vehicle PBS served as control.
Norketotifen was tested in escalating doses. In addition, a supramaximal dose of 100 mg/kg of norketotifen was tested. The reference compounds JNJ7777120, desloratadine and oclacitinib were dosed orally at 20 mg/kg. The vehicle for the reference compound JNJ7777120 was 20% hydroxypropyl-β-cyclodextrin in water. […]. The numbers of pruritic bouts for Norketotifen, DES and OCLA are expressed in percent of the same Vehicle (100% corresponds to 92 pruritic bouts). […] Scratches induced by the histamine-free vehicle PBS (not shown in Table 5) served as control (6±3 bouts of scratching; N=8)
This test used histamine to induce pruritus. […] The histamine inhibitors are “inverse agonists” at both receptor types.

Candida albicans = assay: Antimicrobial test; format: cell-based
Text: (§1) Several studies have been performed to evaluate possible antimicrobial activities of norketotifen. Shown here are the results from a standard microbiological test, where the results are expressed as MIC (Minimal Inhibitory Concentration) of the test article against selected exemplary dermal bacteria (such as for example Staphylococcus aureus) and dermal fungi (such as for example Malassezia sp) that are commonly found in human with dermal diseases. […] All the MIC-tests shown in Table 10 were performed in duplicates, using 10 concentrations of the test articles. […] The test culture tubes/plates were incubated in temperatures and durations appropriate for each microorganism (S. aureus: 36° C. and 24 hours; M. globosa: 30° C. and 24 hours).

Malassezia pachydermatis = assay: Antimicrobial test; format: cell-based
Text: as §1

histamine wheal response = assay: Histamine-induced wheal (Evans blue) in rats, oral pretreatment; format: in vivo; details: rat; for Saline wheal area: histamine vehicle injection
Description: Male rats (150-200 g) were fasted overnight and twelve hours after dorsal depilation, the animals were orally pretreated with the test compound(s). Four dorsal test areas were marked with permanent ink, carefully avoiding the area closest to the spine. […] Two intradermal injections of the vehicle for the histamine solution were also performed. […] Twenty minutes were allowed for the wheal response to fully develop, whereupon the animals were euthanized and the dorsal skin with the intradermal wheals were deflected. The blue spotted areas were measured in square millimeters and the duplicate wheal areas were averaged. […] The inhibition was calculated in percent difference from said baseline values.

Staphylococcus aureus = assay: Antimicrobial MIC test; format: cell-based; details: MRSA or non-resistant S. aureus; 36° C. and 24 hours
Text: as §1

Malassezia globosa = assay: Antimicrobial MIC test; format: cell-based; details: 30° C. and 24 hours
Text: as §1

[8] = oral 20 mg/kg, vehicle 1% methylcellulose/water

O=C1Cc2ccccc2C(=C2CCNCC2)c2ccsc21 (racemic) [Norketotifen]
LD50 ([1]; intravenous): 10 to 15 mg/kg | LD50 ([1]; oral): 1500 to 2000 mg/kg | Solubility ([2]; formulation G1009, mixture of two polyethylene glycols): about 1.0% | Solubility ([2]; in propylene glycol): about 1.0% | Inhibition of croton oil inflammation [3]: completely inhibited | Sedated animals (mice; oral 83 mg/kg): 3/10 | Sedated animals (mice; oral 100 mg/kg): 3/10 | Sedated animals (mice; oral 150 mg/kg): 3/10 | Sedated animals (mice; oral 180 mg/kg): 6/10 | Sedative activity in mice (mice; mouse, in vivo): expressed sedative activity | Reduction of histamine-induced pruritus versus Vehicle Control [4]: 58% | Antimicrobial activity (Helicobacter pylori): potent antimicrobial activities | Norketotifen formed in the liver [5]: up to 0.5 mg | Potency as inhibitor of histamine release relative to ketotifen [6]: approximately 10 times | Bouts/40 min Mean ± SEM ([7]; oral 1 mg/kg): 84.7 ± 11.6 | Bouts as % of Vehicle Controls ([7]; oral 1 mg/kg, 100% = 92 bouts): 92% | Bouts/40 min Mean ± SEM ([7]; oral 3 mg/kg): 34.1 ± 9.6 | Bouts as % of Vehicle Controls ([7]; oral 3 mg/kg, 100% = 92 bouts): 37** % | Bouts/40 min Mean ± SEM ([7]; oral 10 mg/kg): 17.8 ± 3.1 | Bouts as % of Vehicle Controls ([7]; oral 10 mg/kg, 100% = 92 bouts): 19** % | Bouts/40 min Mean ± SEM ([7]; oral 100 mg/kg): 8.3 ± 2.8 | Bouts as % of Vehicle Controls ([7]; oral 100 mg/kg, 100% = 92 bouts): 9*** % | Inhibition of histamine-induced pruritus ([7]; oral supramaximal dose 100 mg/kg): complete inhibition | Antimicrobial activity (Candida albicans): potent antimicrobial activities | Antimicrobial activity (Malassezia pachydermatis): potent antimicrobial activities | Saline wheal area (histamine wheal response; oral 1.0 mg/kg): 22 ± 1 mm^2 | Histamine wheal area (histamine wheal response; oral 10 mg/kg, 60 min before intradermal histamine): 39 ± 2 mm^2 | Saline wheal area (histamine wheal response; oral 10 mg/kg): 22 ± 1 mm^2 | Saline wheal area (histamine wheal response; oral 50 mg/kg): 12 ± 1 mm^2

Clc1ccc2c(c1)CCc1cccnc1C2=C1CCNCC1 [DESLORATADINE, reference compound]
Sedated animals (mice; oral 150 mg/kg): 0/10 | Bouts as % of Vehicle Controls ([7]; oral 20 mg/kg, 100% = 92 bouts): 122% | Bouts/40 min Mean ± SEM [7, 8]: 112.0 ± 14.5

CN(C)CCOC(c1ccccc1)c1ccccc1 [DIPHENHYDRAMINE]
Sedated animals (mice; oral 50 mg/kg): 5/10 | Sedated animals (mice; oral 100 mg/kg): 8/10

OCCOCCN1CCN(C(c2ccccc2)c2ccc(Cl)cc2)CC1 (stereo not drawn) [HYDROXYZINE]
Sedated animals (mice; oral 100 mg/kg): 9/10

CN1CCN(C(=O)c2cc3cc(Cl)ccc3[nH]2)CC1 [J&J7777120, reference compound]
Bouts/40 min Mean ± SEM ([7]; oral 20 mg/kg, vehicle 20% hydroxypropyl-β-cyclodextrin): 63.6 ± 11.7 | Bouts as % of Vehicle Controls ([7]; oral 20 mg/kg, versus vehicle for JNJ7777120 (112 bouts)): 57* %

CN1CCC(=C2c3ccccc3CC(=O)c3sccc32)CC1 [Ketotifen, 4-(1-methyl-4-piperidyline)-4H-benzo(4,5)-cyclohepta-(1,2-b) thiophene-10-one]
LD50 ([1]; intravenous): 5 to 10 mg/kg | LD50 ([1]; oral): < 300 mg/kg | Sedated animals (mice; oral 25 mg/kg): 5/10 | Sedated animals (mice; oral 50 mg/kg): 8/10 | Sedated animals (mice; oral 100 mg/kg): 10/10

CCOC(=O)N1CCC(=C2c3ccc(Cl)cc3CCc3cccnc32)CC1 [LORATADINE]
Sedated animals (mice; oral 150 mg/kg): 1/10

CNS(=O)(=O)C[C@H]1CC[C@H](N(C)c2ncnc3[nH]ccc23)CC1 [Oclacitinib, reference compound]
Bouts as % of Vehicle Controls ([7]; oral 20 mg/kg, 100% = 92 bouts): 55* % | Bouts/40 min Mean ± SEM [7, 8]: 50.9 ± 18.7

COc1ccc(CN(CCN(C)C)c2ccccn2)cc1 [PYRILAMINE]
Sedated animals (mice; oral 100 mg/kg): 8/10

O=C1Cc2ccccc2C(=C2CCNCC2)c2ccsc21 [R-NORKETOTIFEN]
Sedated animals (mice; oral 100 mg/kg, 100 mg/kg): 3/10 | Sedated animals (mice; oral 150 mg/kg, 150 mg/kg): 3/10

O=C(O)/C=C/C(=O)O.O=C1Cc2ccccc2C(=C2CCNCC2)c2ccsc21 [R-norketotifen HF]
S. aureus MIC (Staphylococcus aureus): 1000 µg/mL | M. globosa MIC (Malassezia globosa): 500 µg/mL

O=C(O)/C=C/C(=O)O.O=C1Cc2ccccc2C(=C2CCNCC2)c2ccsc21 [RS-norketotifen HF]
S. aureus MIC (Staphylococcus aureus): 500 µg/mL | M. globosa MIC (Malassezia globosa): 250 µg/mL

O=C1Cc2ccccc2C(=C2CCNCC2)c2ccsc21 [S-NORKETOTIFEN]
Sedated animals (mice; oral 100 mg/kg, 100 mg/kg): 0/10 | Sedated animals (mice; oral 150 mg/kg, 150 mg/kg): 0/10

O=C(O)/C=C/C(=O)O.O=C1Cc2ccccc2C(=C2CCNCC2)c2ccsc21 [S-norketotifen HF]
S. aureus MIC (Staphylococcus aureus): 500 µg/mL | M. globosa MIC (Malassezia globosa): 250 µg/mL

CC(C)(C)c1ccc(C(O)CCCN2CCC(C(O)(c3ccccc3)c3ccccc3)CC2)cc1 (stereo not drawn) [TERFENADINE]
Sedated animals (mice; oral 150 mg/kg): 0/10

Reference: patent US9808419B2, “Medicinal treatment of dermal infectious disorders with norketotifen” (priority 2012, dated 2017)
